These results are taken from patent US20170166555A1, “FUNCTIONALISED AND SUBSTITUTED INDOLES AS ANTI-CANCER AGENTS” (Novogen Limited, priority 2013, published 2017).

One test has as its system SK-Mel-28 melanoma cells. Briefly: Anti-proliferative assay, cell-titre luminescent reagent, 72 h (GVK-BIO). The format is cell-based. The conditions noted are these: Homo sapiens, SK-MEL-28, 72 h, 30, 3, 0.3 and 0.03 μM, linear regression (Tables 2-4). An outline of the steps:
(§1)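 Two dose schemes were used: 30, 3, 0.3, 0.03 μM, giving IC50 by linear regression of percent of control against log concentration; and 30, 10, 3, 1, 0.3, 0.1 μM, giving EC50 by nonlinear variable-slope regression after normalizing to vehicle. Cells had attached for 24 h beforehand.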

The subject of test [1] is CaCo2 colorectal cancer cells. Described as above. The conditions noted are these: Homo sapiens, Caco-2, 72 h, 30, 3, 0.3 and 0.03 μM, linear regression (Tables 2-4). The format is cell-based. An outline of the steps: as §1
The subject of test [2] is A549 non-small cell lung carcinoma cells. The description is as above. It counts as cell-based. The conditions noted are these: Homo sapiens, A549, 72 h, 30, 3, 0.3 and 0.03 μM, linear regression (Tables 2-4), read-out: IC50/μM Lung (NSLC) A549. An outline of the steps:
as §1

Test [3] concerns PC3 prostate cancer cells. The test is described as above. It counts as cell-based. The conditions noted are these: 30, 3, 0.3 and 0.03 μM, linear regression (Tables 2-4). An outline of the steps:
as §1

In test [4] the test system is SK-N-SH neuroblastoma cells. The test is described as above. The format is cell-based. The conditions noted are these: Homo sapiens, SK-N-SH, 30, 3, 0.3 and 0.03 μM, linear regression (Tables 2-4). Summed up:
as §1

The test system of test [5] is DU145 prostate cancer cells. The description is as above. It counts as cell-based. Particulars: Homo sapiens, DU-145, 72 h, 30, 3, 0.3 and 0.03 μM, linear regression (Tables 2-4). Summed up:
as §1

In test [6] the test system is MDA-MB-231 triple negative breast cancer cells. Described as above. The conditions noted are these: Homo sapiens, MDA-MB-231, 72 h, 30, 3, 0.3 and 0.03 μM, linear regression (Tables 2-4). It counts as cell-based. Summed up:
as §1

The test system of test [7] is neuroblastoma (SH-EP) cells. Briefly: Cell viability assay (MTT, 48 hr). It counts as cell-based. The conditions noted are these: 48 hr treatment, read-out: IC50 (μM) SHEP. On the procedure: (§2) Cell viability assays were also conducted to assess the anti-proliferative effects of the anti-tropomyosin compounds 4001-4015. Briefly, cells (1×10^3/well) were plated (96-well) and treated (48 hr) with anti-tropomyosin drug and viability measured using 3-(4,5-dimethylthiazol-2-yl)-2,5-diphenylterazolium bromide MTT. Cell viability was normalized to control (vehicle alone) and dose-response curves, and half maximal effective concentration (EC50) values were determined using Graph Pad Prism 5 (nonlinear regression sigmoidal dose-response variable slope).

The subject of test [8] is melanoma (SK-Mel-28) cells. Briefly: Cell viability assay (MTT, 48 hr). It counts as cell-based. Particulars: Homo sapiens, 48 hr treatment, read-out: IC50 (μM) SKMEL28. On the procedure:
as §2

The next test has as its target Tm5NM1 (Homo sapiens, UniProt P06753). Briefly: Pyrene-based actin filament depolymerization assay. The format is biochemical. Particulars: for Rate of depolymerization of Tm5NM1-containing actin filaments in the presence of compound (in words): Tm5NM1 pre-incubated with 50 μM compound, compared to F-actin alone. The protocol:
FIG. 4: Impact of compounds 4015 and 4093 on Tm5NM1-regulated actin-filament depolymerization kinetics. (A, C and E) Depolymerization time course of 6 μM actin filaments (35% pyrene labelled) diluted 12-fold into F-actin buffer (100 mM NaCl, 10 mM Tris-HCl pH 7.0, 2 mM MgCl2, 1 mM EGTA, 0.2 mM CaCl2, 0.2 mM ATP, 0.5 mM DTT, 0.01% (v/v) NaN3) in the presence or absence of saturating amounts (10 μM) of Tm5NM1. Final concentration of F-actin and Tm5NM1 was 0.5 μM and 0.83 μM respectively. Tm5NM1 was pre-incubated with 50 μM 4015, 4093 or 1% (v/v) DMSO prior to mixing with F-actin. Depolymerization data is normalized to the initial fluorescence value. (B, D and F) Initial rates (V0) of depolymerization for F-actin alone or Tm5NM1/F-actin, in the presence of compound 4015 or 4093. Initial rates of depolymerization were determined from the first 3600 s, fitted to a linear regression model. Data represents mean ±SEM, averaged from n>8 replicates. **** p<0.0001, ** p<0.005.
A brief overview and rationale of the assay is as follows: to promote depolymerization, pyrene-labelled actin filaments were diluted below the critical concentration of the pointed end (0.5 μM, as defined by Pollard et al., 1986). A decline in fluorescence was measured over time as actin monomers dissociate. […] Therefore, any compound, which interacts with, and impacts Tm5NM1 function, would nullify the protective effect of Tm5NM1 on actin depolymerization.
For all assays the depolymerization of F-actin alone and F-actin-coated with the human homologue of Tm5NM1 was used as a comparative control. Briefly, Tm5NM1 was pre-incubated with F-actin for 20 minutes prior to diluting the filaments, to allow for proper assembly of the Tm5NM1 polymer.
The depolymerization of F-actin alone and F-actin-coated with Tm5NM1 was then measured in the presence of test compound and initial rates of depolymerization were compared. Tm5NM1 was pre-incubated with 50 μM 4015 and 4093 prior to being added to the actin filaments as previously described. In the presence of compound 4015, the rate of depolymerization of Tm5NM1-containing actin filaments was increased.

Sequence of Tm5NM1 (P06753 1-248 isoform P06753-2): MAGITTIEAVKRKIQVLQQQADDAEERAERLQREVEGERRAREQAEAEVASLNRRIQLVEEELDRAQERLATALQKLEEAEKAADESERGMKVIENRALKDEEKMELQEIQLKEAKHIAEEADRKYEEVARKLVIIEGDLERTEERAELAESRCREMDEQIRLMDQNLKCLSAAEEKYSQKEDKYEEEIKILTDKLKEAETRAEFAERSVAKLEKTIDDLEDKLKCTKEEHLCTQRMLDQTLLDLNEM

`Cc1c(C)n(CCCN(C)C)c2ccc(CN3CCN(CCc4ccccc4)CC3)cc12` [Compound 4015, 3-(2,3-dimethyl-5-((4-phenethylpiperazin-1-yl)methyl)-1H-indol-1-yl)-N,N-dimethylpropan-1-amine]: the IC50 with SK-Mel-28 melanoma cells is 3.9 µM; in test [1], 2.9 µM; in test [2], 1.8 µM; in [3], 2.9 µM; in [4], 4.6 µM; in test [5] it was 3.7 µM. Further, the figures for the IC50 in [6], in test [7] and in test [8] were 3 µM, 4.6 µM and 6.4 µM, respectively. In addition, at Tm5NM1, the “Rate of depolymerization of Tm5NM1-containing actin filaments in the presence of compound (in words)” value is “increased”.

For the molecule `Cc1c(C)n(CCCN(C)C)c2ccc(Oc3ccc(C(=O)Nc4ccc(F)cc4)cc3)cc12` [Compound 4093, 4-((1-(3-(dimethylamino)propyl)-2,3-dimethyl-1H-indol-5-yl)oxy)-N-(4-fluorophenyl)benzamide], the IC50 in the test on SK-Mel-28 melanoma cells turned out to be 0.9 µM; in test [1], 1.8 µM; in [2] it was 3 µM; in test [3], 1.2 µM; in test [4] it was 2.5 µM; in test [5], 1.7 µM. This molecule also registered an IC50 in test [6] of 2.1 µM. For the same molecule, the “Initial rate (V0) of depolymerization, F-actin alone” value on Tm5NM1 (50 μM compound, FIG. 4E and F) is recorded as −0.30±0.029×10^−4. The “Initial rate (V0) of depolymerization, Tm5NM1-containing actin” value at Tm5NM1 (50 μM compound, FIG. 4E and F) is recorded as −0.26±0.028×10^−4. Also, the “Rate of depolymerization of Tm5NM1-containing actin filaments in the presence of compound (in words)” value at Tm5NM1 was “no significant difference”.
